From US20250136570A1 (Tango Therapeutics, Inc., priority 2021, published 2025)

Tests used:
HDAC3/NCor2 = HDAC3/NCor2 (Homo sapiens (Human), UniProt O15379); experiment: HDAC3 inhibition, Fluor de Lys fluorescent enzyme assay; assay type: biochemical; conditions: 3 hours pre-incubation at room temp; 1.2 nM enzyme; 16 μM Fluor de Lys substrate; duplicate
Procedure, shortened: (§1)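 Enzyme (HDAC1 6 nM, HDAC3/NCor2 1.2 nM final) pre-incubated with compound 3 h at ~22 °C in Tris pH 8 buffer with 0.01% BSA. Reaction run 1 h with 16 μM Fluor de Lys substrate and stopped with TSA-containing developer. Fluorescence read at Ex 360/Em 460; IC50 from an occupancy equation with Hill coefficient, in duplicate.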

Recombinant HDAC1 = Recombinant HDAC1 (Homo sapiens (Human), UniProt Q13547); experiment: HDAC1 inhibition, Fluor de Lys fluorescent enzyme assay; assay type: biochemical; conditions: 3 hours pre-incubation at room temp; 6 nM enzyme; 16 μM Fluor de Lys substrate; duplicate
Procedure, shortened: as §1

Chain of Recombinant HDAC1 (Q13547 whole entry): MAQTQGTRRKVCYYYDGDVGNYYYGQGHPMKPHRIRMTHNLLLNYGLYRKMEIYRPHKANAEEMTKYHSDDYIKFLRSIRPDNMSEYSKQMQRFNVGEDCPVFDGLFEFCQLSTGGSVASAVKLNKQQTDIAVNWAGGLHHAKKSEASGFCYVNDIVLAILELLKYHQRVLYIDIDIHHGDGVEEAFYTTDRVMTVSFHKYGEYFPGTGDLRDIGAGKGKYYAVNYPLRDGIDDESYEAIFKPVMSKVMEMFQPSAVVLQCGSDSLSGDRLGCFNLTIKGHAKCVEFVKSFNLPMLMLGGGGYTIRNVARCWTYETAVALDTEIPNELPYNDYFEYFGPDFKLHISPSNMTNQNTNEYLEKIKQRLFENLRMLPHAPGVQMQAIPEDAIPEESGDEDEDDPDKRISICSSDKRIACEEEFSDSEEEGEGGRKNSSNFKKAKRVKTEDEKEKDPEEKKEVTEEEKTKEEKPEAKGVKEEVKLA
Chain of HDAC3/NCor2 (O15379 whole entry): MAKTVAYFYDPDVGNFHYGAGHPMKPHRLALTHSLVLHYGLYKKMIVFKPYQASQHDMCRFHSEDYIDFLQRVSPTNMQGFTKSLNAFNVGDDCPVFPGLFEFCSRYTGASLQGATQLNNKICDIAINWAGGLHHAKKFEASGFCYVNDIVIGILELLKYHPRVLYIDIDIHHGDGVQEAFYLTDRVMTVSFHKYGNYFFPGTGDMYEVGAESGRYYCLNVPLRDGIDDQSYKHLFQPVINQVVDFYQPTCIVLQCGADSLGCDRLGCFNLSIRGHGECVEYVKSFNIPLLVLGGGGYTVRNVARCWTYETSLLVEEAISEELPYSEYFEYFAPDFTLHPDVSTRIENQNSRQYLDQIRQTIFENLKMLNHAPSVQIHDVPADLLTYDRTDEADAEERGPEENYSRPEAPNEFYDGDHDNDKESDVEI
Chain of HDAC3/NCor2 (Q9Y618 395-489 partner): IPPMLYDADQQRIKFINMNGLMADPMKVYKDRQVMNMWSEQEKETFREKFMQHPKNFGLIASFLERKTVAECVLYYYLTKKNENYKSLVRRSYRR

SMILES	IC50 (HDAC3/NCor2) [nM]	IC50 (Recombinant HDAC1) [nM]
C[S@](=N)(=O)c1ccc(C(=O)Nc2cc(-c3ccc(F)cc3)ccc2N)cc1 [Compound 134, (S)—N-[2-amino-5-(4-fluorophenyl)phenyl]-4-(methylsulfonimidoyl)benzamide]	500 to 2000	< 100
N=S(=O)(c1ccc(C(=O)Nc2cc(-c3ccc(F)cc3)ccc2N)cc1)c1ncc[nH]1 (stereo not drawn) [Compound 257, N-[2-amino-5-(4-fluorophenyl)phenyl]-4-(1H-imidazol-2-ylsulfonimidoyl)benzamide]	100 to 500	< 100
CS(=N)(=O)c1ccc(C(=O)Nc2cc(-c3ccc(C(F)(F)F)cc3)ccc2N)cc1 (stereo not drawn) [Compound 142, N-[2-amino-5-[4-(trifluoromethyl)phenyl]phenyl]-4-(methylsulfonimidoyl)benzamide]	> 2000	500 to 2000
CS(=O)(=NC1CC1)c1ccc2sc(C(=O)Nc3cc(-c4ccc(F)cc4)ccc3N)cc2c1 (stereo not drawn) [Compound 211, N-[2-amino-5-(4-fluorophenyl)phenyl]-5-(N-cyclopropyl-S-methyl-sulfonimidoyl)benzothiophene-2-carboxamide]	500 to 2000	< 100
N=[S@](=O)(c1ccc(C(=O)Nc2cc(-c3ccc(F)cc3)ccc2N)cc1)c1cncnc1 (single isomer, unassigned) [Compound 183]	500 to 2000	< 100
Nc1ccc(-c2ccc(F)cc2)cc1NC(=O)c1ccc([S@]2(=O)=NCCC2)cc1 (stereo in doubt) [Compound 184, N-[2-amino-5-(4-fluorophenyl)phenyl]-4-[rel-(1S)-1-oxo-4,5-dihydro-3H-isothiazol-1-yl]benzamide]	500 to 2000	< 100
N#Cc1ccc(S(=N)(=O)c2ccc(C(=O)Nc3cc(-c4ccc(F)cc4)ccc3N)cc2)cn1 (stereo not drawn) [Compound 239, N-[2-amino-5-(4-fluorophenyl)phenyl]-4-[(6-cyano-3-pyridyl)sulfonimidoyl]benzamide]	500 to 2000	< 100
CS(=N)(=O)c1ncc(C(=O)Nc2cc(-c3ccc(F)cc3)ccc2N)s1 (stereo not drawn) [Compound 164, N-[2-amino-5-(4-fluorophenyl)phenyl]-2-(methylsulfonimidoyl)thiazole-5-carboxamide]	500 to 2000	100 to 500
CS(=N)(=O)c1ccc2sc(C(=O)Nc3cc(-c4cccs4)ccc3N)cc2c1 (stereo not drawn) [Compound 138, N-[2-amino-5-(2-thienyl)phenyl]-5-(methylsulfonimidoyl)benzothiophene-2-carboxamide]	500 to 2000	< 100
N=S(=O)(c1ccc(C(=O)Nc2cc(-c3ccc(F)cc3)ccc2N)cn1)c1cnc[nH]1 (stereo not drawn) [Compound 219, N-[2-amino-5-(4-fluorophenyl)phenyl]-6-(1H-imidazol-5-ylsulfonimidoyl)pyridine-3-carboxamide]	500 to 2000	< 100
CS(=N)(=O)c1ccc(C(=O)Nc2cc(-c3ccc(C(N)=O)s3)ccc2N)cc1 (stereo not drawn) [Compound 176, 5-[4-amino-3-[[4-(methylsulfonimidoyl)benzoyl]amino]phenyl]thiophene-2-carboxamide]	> 2000	> 2000
Cc1ncc(S(=N)(=O)c2ccc(C(=O)Nc3cc(-c4ccc(F)cc4)ccc3N)cc2)[nH]1 (stereo not drawn) [Compound 217, N-[2-amino-5-(4-fluorophenyl)phenyl]-4-[(2-methyl-1H-imidazol-5-yl)sulfonimidoyl]benzamide]	100 to 500	< 100
CCN=S(C)(=O)c1ccc2sc(C(=O)Nc3cc(-c4ccc(F)cc4)ccc3N)cc2c1 (stereo not drawn) [Compound 207, N-[2-amino-5-(4-fluorophenyl)phenyl]-5-(N-ethyl-S-methyl-sulfonimidoyl)benzothiophene-2-carboxamide]	500 to 2000	< 100
N=S(=O)(c1ccc2sc(C(=O)Nc3cc(-c4ccc(F)cc4)ccc3N)cc2c1)C1CC1 (stereo not drawn) [Compound 224, N-[2-amino-5-(4-fluorophenyl)phenyl]-5-(cyclopropylsulfonimidoyl)benzothiophene-2-carboxamide]	500 to 2000	< 100
N=[S@@](=O)(c1ccc(C(=O)Nc2cc(-c3ccc(F)s3)ccc2N)cc1)C1CC1 (single isomer, unassigned) [Compound 133]	500 to 2000	< 100
CCN=S(C)(=O)c1ccc(C(=O)Nc2cc(-c3ccc(F)cc3)ccc2N)cc1 (stereo not drawn) [Compound 165, N-[2-amino-5-(4-fluorophenyl)phenyl]-4-(N-ethyl-S-methyl-sulfonimidoyl)benzamide]	500 to 2000	< 100
CS(=N)(=O)c1ccc(C(=O)Nc2cc(-c3cncnc3)ccc2N)cc1 (stereo not drawn) [Compound 151, N-(2-amino-5-pyrimidin-5-yl-phenyl)-4-(methylsulfonimidoyl)benzamide]	> 2000	> 2000
N=[S@@](=O)(c1ccc(C(=O)Nc2cc(-c3ccc(F)cc3)ccc2N)cc1)c1cncnc1 (single isomer, unassigned) [Compound 181]	500 to 2000	< 100
N=S(=O)(c1ccc(C(=O)Nc2cc(-c3ccc(F)cc3)ccc2N)cc1)c1cnccc1O (stereo not drawn) [Compound 227, N-[2-amino-5-(4-fluorophenyl)phenyl]-4-[(4-hydroxy-3-pyridyl)sulfonimidoyl]benzamide]	500 to 2000	< 100
CS(=N)(=O)Cc1ccc2sc(C(=O)Nc3cc(-c4ccc(F)cc4)ccc3N)cc2c1 (stereo not drawn) [Compound 167, N-[2-amino-5-(4-fluorophenyl)phenyl]-5-[(methylsulfonimidoyl)methyl]benzothiophene-2-carboxamide]	500 to 2000	< 100
Cc1ncc(-c2ccc(N)c(NC(=O)c3ccc(S(C)(=N)=O)cc3)c2)s1 (stereo not drawn) [Compound 156, N-[2-amino-5-(2-methylthiazol-5-yl)phenyl]-4-(methylsulfonimidoyl)benzamide]	> 2000	100 to 500

More lines, now with the values ahead:

IC50 (HDAC3/NCor2) [nM]	IC50 (Recombinant HDAC1) [nM]	SMILES
500 to 2000	< 100	N=S(=O)(c1ccc(C(=O)Nc2cc(-c3ccc(F)cc3)ccc2N)cc1)c1cnccn1 (stereo not drawn) [Compound 195, N-[2-amino-5-(4-fluorophenyl)phenyl]-4-(pyrazin-2-ylsulfonimidoyl)benzamide]
100 to 500	< 100	Cc1nc[nH]c1S(=N)(=O)c1ccc(C(=O)Nc2cc(-c3ccc(F)cc3)ccc2N)cc1 (stereo not drawn) [Compound 209, N-[2-amino-5-(4-fluorophenyl)phenyl]-4-[(4-methyl-1H-imidazol-5-yl)sulfonimidoyl]benzamide]
500 to 2000	< 100	CS(=N)(=O)Cc1ccc2oc(C(=O)Nc3cc(-c4ccc(F)cc4)ccc3N)cc2c1 (stereo not drawn) [Compound 170, N-[2-amino-5-(4-fluorophenyl)phenyl]-5-[(methylsulfonimidoyl)methyl]benzofuran-2-carboxamide]
500 to 2000	< 100	CS(=N)(=O)C1(c2ccc(C(=O)Nc3cc(-c4cccs4)ccc3N)cc2)CC1 (stereo not drawn) [Compound 140, N-[2-amino-5-(2-thienyl)phenyl]-4-[1-(methylsulfonimidoyl)cyclopropyl]benzamide]
500 to 2000	< 100	N=S(=O)(c1ccc(C(=O)Nc2cc(-c3ccc(F)cc3)ccc2N)cc1)c1ccc(F)cn1 (stereo not drawn) [Compound 247, N-[2-amino-5-(4-fluorophenyl)phenyl]-4-[(5-fluoro-2-pyridyl)sulfonimidoyl]benzamide]
500 to 2000	< 100	C[S@@](=N)(=O)c1ccc(C(=O)Nc2cc(-c3ccc(F)s3)ccc2N)cc1 [Compound 144, (R)—N-[2-amino-5-(5-fluoro-2-thienyl)phenyl]-4-(methylsulfonimidoyl)benzamide]
500 to 2000	< 100	C=C(C)c1cncc(S(=N)(=O)c2ccc(C(=O)Nc3cc(-c4ccc(F)cc4)ccc3N)cc2)c1 (stereo not drawn) [Compound 225, N-[2-amino-5-(4-fluorophenyl)phenyl]-4-[(5-isopropenyl-3-pyridyl)sulfonimidoyl]benzamide]
500 to 2000	< 100	N=S(=O)(c1ccc(C(=O)Nc2cc(-c3ccc(F)cc3)ccc2N)cc1)c1cccnn1 (stereo not drawn) [Compound 174, N-[2-amino-5-(4-fluorophenyl)phenyl]-4-(pyridazin-3-ylsulfonimidoyl)benzamide]
> 2000	< 100	Cc1csc(-c2ccc(N)c(NC(=O)c3ccc(S(C)(=N)=O)cc3)c2)c1 (stereo not drawn) [Compound 135, N-[2-amino-5-(4-methyl-2-thienyl)phenyl]-4-(methylsulfonimidoyl)benzamide]
500 to 2000	< 100	CS(=N)(=O)c1ccc(C(=O)Nc2cc(-c3cccs3)ccc2N)cn1 (stereo not drawn) [Compound 110, N-[2-amino-5-(2-thienyl)phenyl]-6-(methylsulfonimidoyl)pyridine-3-carboxamide]
> 2000	< 100	Nc1ccc(-c2ccc(Cl)cc2)cc1NC(=O)c1ccc(S2(=O)=NCCC2)cc1 (stereo not drawn) [Compound 203, N-[2-amino-5-(4-chlorophenyl)phenyl]-4-(1-oxo-4,5-dihydro-3H-isothiazol-1-yl)benzamide]
500 to 2000	< 100	CS(=N)(=O)c1ccc(C(=O)Nc2cc(-c3cccs3)ccc2O)cc1 (stereo not drawn) [Compound 123, N-[2-hydroxy-5-(2-thienyl)phenyl]-4-(methylsulfonimidoyl)benzamide]
> 2000	> 2000	CS(=N)(=O)c1ccc(C(=O)Nc2cc(C#CC3CC3)ccc2N)cc1 (stereo not drawn) [Compound 155, N-[2-amino-5-(2-cyclopropylethynyl)phenyl]-4-(methylsulfonimidoyl)benzamide]
> 2000	< 100	CC1CCS(=O)(c2ccc(C(=O)Nc3cc(-c4ccc(F)cc4)ccc3N)cc2)=N1 (stereo not drawn) [Compound 244]
> 2000	< 100	CS(=N)(=O)c1ccc(C(=O)Nc2cc(-c3ccc(Cl)cc3)ccc2N)cc1 (stereo not drawn) [Compound 182, N-[2-amino-5-(4-chlorophenyl)phenyl]-4-(methylsulfonimidoyl)benzamide]
